Test results from PubChem BioAssay (NCI).
“And” between values parts separate entries of the source, which are not always exact repeats. Identical values can stand only once.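 Briefly, cells in 96-well plates were exposed to five compound concentrations for 48 h, and endpoints were estimated by linear interpolation. GI50: concentration for 50% inhibition of growth. The concentration for full growth arrest is given as TGI.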

Experiments:
Assay in all cases: growth of human tumour cells (NCI), 48 h
K-562 leukemia = test system: K-562 leukemia
SK-MEL-2 melanoma = test system: SK-MEL-2 melanoma
HCC-2998 colon = test system: HCC-2998 colon
HOP-62 NSCLC = test system: HOP-62 NSCLC
HCT-15 colon = test system: HCT-15 colon
UACC-257 melanoma = test system: UACC-257 melanoma
DU-145 prostate = test system: DU-145 prostate
MCF7 breast = test system: MCF7 breast
HCT-116 colon = test system: HCT-116 colon
UACC-62 melanoma = test system: UACC-62 melanoma

| SMILES | TGI (K-562 leukemia) [µM] | TGI (SK-MEL-2 melanoma) [µM] | TGI (HCC-2998 colon) [µM] | TGI (HOP-62 NSCLC) | TGI (HCT-15 colon) [µM] | TGI (UACC-257 melanoma) [µM] | TGI (DU-145 prostate) [µM] | TGI (MCF7 breast) [µM] | TGI (HCT-116 colon) [µM] | TGI (UACC-62 melanoma) [µM] | GI50 (K-562 leukemia) [nM] | GI50 (SK-MEL-2 melanoma) [nM] | GI50 (HCC-2998 colon) | GI50 (HOP-62 NSCLC) [nM] | GI50 (UACC-62 melanoma) [nM] | GI50 (HCT-15 colon) [nM] | GI50 (UACC-257 melanoma) [µM] | GI50 (MCF7 breast) [nM] | GI50 (HCT-116 colon) [nM] |
| --- | --- | --- | --- | --- | --- | --- | --- | --- | --- | --- | --- | --- | --- | --- | --- | --- | --- | --- | --- |
| O=C(O)CSCc1cc2c(O)c(c1)Cc1cc(CSCC(=O)O)cc(c1O)Cc1cc(CSCC(=O)O)cc(c1O)Cc1cc(CSCC(=O)O)cc(c1O)C2 | > 100 | > 100 | > 100 | > 100 µM | > 100 | > 100 | > 100 | > 100 | > 100 |  |  |  |  |  |  |  |  |  |  |
| Oc1ccc2c(c1)CCc1c-2n(CCN2CCOCC2)c2ccc(O)cc12 | > 100 | 70.9 |  | > 100 µM | > 100 | > 100 | > 100 | > 100 | > 100 | 55.5 |  |  |  |  |  |  |  |  |  |
| COc1cc([C@@H]2c3cc4c(c(O)c3C[C@H]3COC(=O)[C@@H]32)OCO4)cc(OC)c1OC |  |  |  | 57.9 µM and 218 µM and > 100 µM |  |  |  |  |  |  | 141 | 1020 | < 24.1 nM and 241 nM | 249 | 144 | 190 | > 100 | 34.9 | 58.9 |
| S=C(NNC1=NCCCCN1)Nc1ccc(Cl)cc1 | > 100 | > 100 | > 100 | 31.7 µM | > 100 | 43.9 |  | > 100 | > 100 | 18.9 |  |  |  |  |  |  |  |  |  |
| COC(=O)[C@H](Cc1ccccc1)NC(=O)/C(=C/C(C)C)NC(=O)[C@H](CCSC)NC=O | > 100 | > 100 | > 100 | > 100 µM | > 100 | > 100 |  |  | > 100 | > 100 |  |  |  |  |  |  |  |  |  |
| CCN1CCCC(C#N)(c2ccccc2)CC1 (centres undefined) | > 100 |  | > 100 | > 100 µM | > 100 | > 100 | > 100 |  | > 100 |  |  |  |  |  |  |  |  |  |  |
| N#C[C@H](C(=O)c1ccccc1F)c1nc2ccccc2s1 | > 100 | 51.1 |  | > 100 µM | > 100 | > 100 | > 100 |  | 61.3 | > 100 |  |  |  |  |  |  |  |  |  |
| O=C(CC(CC(=O)Oc1c(Br)cc(Br)cc1C(=O)O)C(=O)Oc1c(Br)cc(Br)cc1C(=O)O)Oc1c(Br)cc(Br)cc1C(=O)O | > 100 | > 100 | > 100 | > 100 µM | > 100 | > 100 |  |  | > 100 | > 100 |  |  |  |  |  |  |  |  |  |
| O=C1C(C(O)(C(F)(F)Cl)C(F)(F)Cl)CCCC1C(O)(C(F)(F)Cl)C(F)(F)Cl (centres undefined) |  | > 10 | > 10 | > 10 µM | > 10 | > 10 | > 10 | > 10 | > 10 | > 10 |  |  |  |  |  |  |  |  |  |
| CCCC(=O)Nc1cc(/C=C/C(=O)N2CC(CCl)c3c2cc(OCc2ccccc2)c2[nH]cc(C)c32)n(C)c1 (centres undefined) | 0.904 | 0.218 |  | 0.453 µM | 0.93 | 0.868 |  |  | 0.225 | 0.0934 |  |  |  |  |  |  |  |  |  |
| Cc1[nH]c(=O)nc2c1C(NCCCN(C)C)c1cc(Cl)ccc1N2 (centres undefined) | 26.9 | 31.5 | 30.1 | 27.9 µM |  | 26 |  |  | 28.5 | 26.2 |  |  |  |  |  |  |  |  |  |
| Cc1cc([N+](=O)[O-])ccc1Sc1c2ccccc2nc2cc(Cl)ccc12 | > 100 | > 100 | > 100 | > 100 µM | > 100 | > 100 |  |  | 63.8 | > 100 |  |  |  |  |  |  |  |  |  |
| COC(=O)CCC(NC(=S)N/N=C/c1ccccn1)C(=O)OC (centres undefined) | > 100 | > 100 | > 100 | > 100 µM | > 100 | > 100 |  |  | > 100 | > 100 |  |  |  |  |  |  |  |  |  |
| c1cnn(C23C4C5C6C4C2C6C53)c1 (centres undefined) | > 100 | > 100 | > 100 | > 100 µM | > 100 | > 100 | > 100 | > 100 | > 100 |  |  |  |  |  |  |  |  |  |  |
| CCCCCC1CC=CC(=O)O1 (centres undefined) | 42.7 | 23.5 |  | 18.5 µM | 21.9 | 32.9 | > 100 | 40.3 | 5.83 | 25.3 |  |  |  |  |  |  |  |  |  |
| CC(=O)OC1CC2CCN3C(=O)c4cc5c(cc4[C@H](C1OC(C)=O)C23)OCO5 (some centres undefined) | > 100 |  | > 100 | > 100 µM | > 100 | > 100 |  |  | > 100 | > 100 |  |  |  |  |  |  |  |  |  |
| CC(C)(C)OC(=O)N[C@H]1CC(O)c2ccccc2N(CC(=O)O)C1=O (some centres undefined) |  | > 100 | > 100 | > 100 µM | > 100 | > 100 |  |  | > 100 | > 100 |  |  |  |  |  |  |  |  |  |
| O=C(NC(=S)Nc1ccc2c(c1)Sc1ccccc1O2)c1ccc([N+](=O)[O-])cc1 | > 100 | > 100 |  | > 100 µM | > 100 | > 100 | > 100 | > 100 | > 100 | > 100 |  |  |  |  |  |  |  |  |  |

| SMILES | TGI (K-562 leukemia) [µM] | TGI (SK-MEL-2 melanoma) [µM] | TGI (HCC-2998 colon) [µM] | TGI (HOP-62 NSCLC) | TGI (HCT-15 colon) [µM] | TGI (UACC-257 melanoma) [µM] | TGI (DU-145 prostate) [µM] | TGI (MCF7 breast) [µM] | TGI (HCT-116 colon) [µM] | TGI (UACC-62 melanoma) [µM] | GI50 (K-562 leukemia) [nM] | GI50 (SK-MEL-2 melanoma) [nM] | GI50 (HCC-2998 colon) | GI50 (HOP-62 NSCLC) [nM] | GI50 (UACC-62 melanoma) [nM] | GI50 (HCT-15 colon) [nM] | GI50 (UACC-257 melanoma) [µM] | GI50 (MCF7 breast) [nM] | GI50 (HCT-116 colon) [nM] |
| --- | --- | --- | --- | --- | --- | --- | --- | --- | --- | --- | --- | --- | --- | --- | --- | --- | --- | --- | --- |
| COc1ccc(NC(=S)N/N=C\c2ccc(NC(C)=O)cc2)cc1 |  | > 100 | > 100 | > 100 µM |  | > 100 | > 100 |  | > 100 | > 100 |  |  |  |  |  |  |  |  |  |
| NC1=NC2=c3ccccc3=C(c3cnccn3)C2(c2cnccn2)c2ccccc21 (centres undefined) | > 100 | > 100 | > 100 | > 100 µM | > 100 | > 100 |  |  | > 100 | > 100 |  |  |  |  |  |  |  |  |  |
| Oc1cc(O)c2ccc(-c3ccc(O)c(O)c3)[o+]c2c1 | > 100 | > 100 | > 100 | > 100 µM | > 100 | > 100 |  | > 100 | > 100 | > 100 |  |  |  |  |  |  |  |  |  |
| O=Cc1c2n(c3ccccc13)N[C@@](Cc1ccc(O)cc1)(C(=O)O)C2 | > 100 | > 100 |  | > 100 µM | > 100 | 86.9 | > 100 | > 100 | > 100 | > 100 |  |  |  |  |  |  |  |  |  |
| O=C(O)CSC(CC1(c2ccc(Cl)cc2)NC(=O)CS1)c1ccc(Cl)cc1 (centres undefined) | > 100 | > 100 |  | > 100 µM | > 100 | > 100 | > 100 | > 100 | > 100 | > 100 |  |  |  |  |  |  |  |  |  |
| C(/C=C/c1ccccc1)=Nc1ccc2c(c1)Cc1ccccc1-2 | > 100 | > 100 |  | > 100 µM | > 100 |  | > 100 |  | > 100 | > 100 |  |  |  |  |  |  |  |  |  |
| CCCCCCCCOCC(O)COC(C)C (centres undefined) | 96.6 |  | 58.3 | > 100 µM | > 100 | 72.7 |  |  | > 100 | > 100 |  |  |  |  |  |  |  |  |  |
| Cc1ccc(/C=N/n2c(Cc3ccccc3)n[nH]c2=O)cc1 | > 100 |  | > 100 | > 100 µM | > 100 | > 100 | > 100 |  | > 100 |  |  |  |  |  |  |  |  |  |  |
| COC(=O)/C(=N\NC(N)=O)C(C(=O)C(=O)Nc1ccccc1OC)c1nc2ccc([N+](=O)[O-])cc2[nH]c1=O (centres undefined) | > 100 | > 100 | > 100 | > 100 µM | > 100 | > 100 |  | > 100 | > 100 | > 100 |  |  |  |  |  |  |  |  |  |
| COc1ccccc1C1C(Cl)C(=O)N1n1cnc2ccccc2c1=O (centres undefined) | > 100 | > 100 | > 100 | > 100 µM | > 100 | > 100 |  |  | > 100 | > 100 |  |  |  |  |  |  |  |  |  |
| c1ccc2c(c1)NCCC(=NC1CCCCC1)N2 | > 100 | > 100 |  | > 100 µM | > 100 | > 100 | > 100 |  | > 100 | > 100 |  |  |  |  |  |  |  |  |  |
| Nc1ccc2nc3c(nc2c1)C(=O)c1ccccc1-3 | > 100 |  | > 100 | > 100 µM | > 100 | > 100 | > 100 | > 100 | > 100 | > 100 |  |  |  |  |  |  |  |  |  |
| Oc1ccc([Te]CCNCC[Te]c2ccc(O)cc2)cc1 | > 100 |  | 38.2 | 46.5 µM |  | > 100 |  |  | 28.4 | 45.8 |  |  |  |  |  |  |  |  |  |
| C[Si](C)(C)C#Cc1cc(-c2nc3ccccc3s2)ccc1N | 70.6 |  |  | 29.9 µM | 32.1 | 34.8 | 62.1 | 12 | 26.6 | 33.2 |  |  |  |  |  |  |  |  |  |
| CC1(C)CC(O)C2=C(O1)C(=O)c1ncccc1C2=O (centres undefined) |  | 6.74 | 14.6 | 3.38 µM | 12 | 3.19 | 10 | 5.34 | 5.76 | 3.15 |  |  |  |  |  |  |  |  |  |
| Nc1ccccc1Nc1ccccc1C(=O)[O-].Nc1ccccc1Nc1ccccc1C(=O)[O-].[Zn+2] | > 100 | 43.2 | > 100 | > 100 µM | > 100 | > 100 |  |  | > 100 | 68.2 |  |  |  |  |  |  |  |  |  |
| C1=NCCN2CCN(CCN=Cc3ccccc3OCc3cccc(n3)COc3ccccc31)CC2 | > 50 | > 50 |  | > 50 µM | 21.4 | 34.4 | 35.7 | 9.29 | 18.8 | 7.8 |  |  |  |  |  |  |  |  |  |
| COc1ccc(N=C2S/C(=N\C(=Nc3ccccc3)SCc3ccccc3)N(c3ccccc3)C2=Nc2ccc(OC)cc2)cc1 | > 100 | > 100 | > 100 | > 100 µM | > 100 | > 100 |  | > 100 | > 100 | > 100 |  |  |  |  |  |  |  |  |  |
